In patent publication US20100227841A1, “Patient populations and treatment methods” (Harbor BioSciencs, Inc., priority 2008, published 2010):

Key:
female NOD mice = test: Spontaneous autoimmune diabetes in non-obese diabetic (NOD) mouse model; assay type: in vivo; conditions: for Insulitis Score/Islet (H&E) / β-Cell Score/Islet (Insulin): scale of 0 to 3
Text: Treatment of spontaneous autoimmune diabetes in non-obese diabetic (NOD) mouse model. The NOD model is used as an animal model for human type 1 diabetes. The NOD mouse strain spontaneously develops autoimmune (type 1) diabetes by a process that has similarities to human type 1 diabetes mellitus, e.g., immune-mediated selective destruction of the pancreatic islet 13-cells that produce insulin (M. A. Atkinson and N. K. Maclaren, New England J. Medicine, 331:1428-1436 1994). There is a higher incidence of diabetes (i.e., hyperglycemia, glucosuria, and hypoinsulinemia) in female vs. male NOD mice (80-90% vs. 10-20%, respectively). Disease incidence in this animal model is first observed at approximately 12 to 15 weeks of age with maximum incidence usually peaking 5 to 6 weeks later.
Methods. An oral formulation containing 17α-ethynylandrost-5-ene-3β,7β,17β-triol in 30% w/v β-cyclodextrin sulfobutyl ether sodium salt (Captisol®; CyDex, Inc., Overland Park, Kans.) was used. Six-week old female NOD mice (approximately 20-25 grams) were purchased from The Jackson Laboratories (Bar Harbor, Me.) and housed in a vivarium under pathogen-free conditions. The animals were acclimated for at least one week prior to initiation of oral dosing with 17α-ethynylandrost-5-ene-3β,7β,17β-triol. Animals were randomized into 5 per cage upon receipt and cages were subsequently randomized into dosing groups.
Female NOD mice were treated once daily with vehicle, 17α-ethynylandrost-5-ene-3β,7β,17β-triol (20 or 80 mg/kg in 100 μL, p.o.), or dexamethasone (0.25 mg/kg, 100 μL, i.p.) from 15 to 25 weeks of age (i.e., before the first incidence of diabetes; at the University of Catania), from 13 to 19 weeks of age (2 days after the first incidence of diabetes), or from 12 to 26 weeks of age (9 days after the first incidence of diabetes). Blood glucose was monitored using glucometers (ENCORE Glucometer, Bayer Corp., Elkhart, Ind.) at weekly intervals, beginning at 10 weeks of age. Mice with blood glucose levels 200 mg/dL on two consecutive occasions were considered diabetic. The percentage of animals with diabetes over the course of the experiment was monitored.
Histological assessment of insulitis and functional 13-cell content was assessed at the time of disease diagnosis or at the end of the 26-week study (i.e., disease-free mice). Pancreata (after CO2 euthanasia) were immediately isolated and placed in 10% buffered formalin at room temperature overnight, and then embedded in paraffin. After de-paraffinizing, pancreas samples were rehydrated and 5 μm sections were prepared and fixed on glass slides. Some sections were stained with hematoxylin and eosin (H&E) while others were stained with anti-insulin antibody as follows; prepared sections were immersed in Tris-Buffered Saline (TBS: 10 mM Tris buffer, pH 7.4, 0.15 M NaCl) containing 1% of bovine serum albumin (BSA) and 5% normal goat serum for 2 h at room temperature followed by incubation with 2 μg/mL rat anti-insulin IgG2a monoclonal antibody (MAB1417; R&D Systems, Minneapolis, Minn.) in TBS/1% BSA overnight at 4° C. in a humidified chamber. After washing with TBS/0.5 Tween-20, sections were covered with biotinylated anti-rat IgG secondary antibody (BD biosciences, 1:1,000) for 1 h at room temperature, followed by washing with TBS/Tween-20 and incubation with streptavidin-horseradish peroxidase for 30 min. Sections were then incubated with chromogen substrate, DAB (BD Biosciences), for 5 min and counterstained with hematoxylin. The degree of insulitis (leukocyte infiltration per islet; H&E) and functional 13-cell content per islet (insulin production) was scored using a scale of 0 to 3 in which 0=none, 1=few, 2=moderate, 3=high content of inflammatory cells or functional β-cells. Pancreata that were scored were obtained from a randomly-selected portion of mice from each cohort and scores were reported as the mean±SEM for each cohort.

CCR2 / MCP1 = test: Effects of treatment on CCR2 expression and circulating MCP1; assay type: in vivo
Text: The treatment methods described herein may involve treating patient subsets having elevated MCP1 (monocyte chemoattractant protein 1, or sometimes referred to as CCL2, which is CC chemokine receptor 2 ligand). CC chemokine receptor 2 (CCR2) is the receptor for MCP1. […] These effects are consistent with biological responses that correspond to reduced progression and/or at least partial reversal of cardiovascular plaque accumulation. That provides a basis for treating, e.g., slowing the progression, of arteriosclerosis and atherosclerosis. Such treatments would be effective in patients having a dyslipidemia such as hypercholesterolemia and/or hypertriglyceridemia with or without also having an arteriosclerosis condition such as atherosclerosis. Such patients will preferably have BMI and fasting plasma insulin levels as described in the embodiments described below (e.g., in embodiment 1, 9, 10, 17 or 19), examples or original claims, e.g., a BMI of ≧28 and insulin of ≧4 μU/mL. Any of these patients may also have hyperglycemia or overt diabetes. Patients with elevated MCP1 are also treatable for preventing or reducing the severity of cardiovascular disease, including myocardial infarction.

Structure (SMILES): C#C[C@]1(O)CC[C@H]2[C@@H]3[C@@H](O)C=C4C[C@@H](O)CC[C@]4(C)[C@H]3CC[C@@]21C [17α-ethynylandrost-5-ene-3β,7β,17β-triol]
- Disease Incidence (female NOD mice; 20 mg/kg p.o. once daily): 0.78 ± 0.15
- No. Islets/pancreas (H&E) (female NOD mice; 20 mg/kg p.o. once daily): 2.4 ± 0.9
- Insulitis Score/Islet (H&E) (female NOD mice; 20 mg/kg p.o. once daily): 2.5 ± 0.3
- β-Cell Score/Islet (Insulin) (female NOD mice; 20 mg/kg p.o. once daily): 1.5 ± 0.4
- effect on disease incidence (female NOD mice; 20 mg/kg, differs from 80 mg/kg, p=0.009 Fischer's Exact test): ineffective
- Disease Incidence (female NOD mice; 80 mg/kg p.o. once daily): 0.17 ± 0.17
- No. Islets/pancreas (H&E) (female NOD mice; 80 mg/kg p.o. once daily): 8.0 ± 3.1
- Insulitis Score/Islet (H&E) (female NOD mice; 80 mg/kg p.o. once daily): 0.8 ± 0.4
- β-Cell Score/Islet (Insulin) (female NOD mice; 80 mg/kg p.o. once daily): 2.6 ± 0.4
- progressive increase in disease incidence (female NOD mice; 80 mg/kg single daily oral doses started 2 days or 9 days after first incidence of diabetes): suppressed
- disease incidence relative to vehicle, meta-analysis across all studies (female NOD mice; 80 mg/kg, p=0.007 Fischer's Exact test): significant decrease
- mean±SEM body weights (female NOD mice; Week 25, 20 mg/kg): 24.6 ± 0.8 g
- mean±SEM body weights (female NOD mice; Week 25, 80 mg/kg): 24.7 ± 0.3 g
- first incidence of diabetes (female NOD mice; week 19, once daily treatment from 15 to 25 weeks of age (vehicle 25%)): 8%
- mean±SEM body weights (female NOD mice; week 31, end of study): 24.3 ± 0.6 g
- maximum disease incidence during treatment (female NOD mice; weeks 23 through 25 (vehicle 66%), p<0.05 Chi-Squared test): 25%
- expression levels of CCR2 (CCR2 / MCP1; in vivo): decrease
- MCP1 in circulation (CCR2 / MCP1; typically protein levels in serum, e.g. ELISA): trend to decrease
